From ChEMBL document CHEMBL1201862, “PubChem BioAssay data set” (2004)
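Assay format: 96-well plates, 48-hour exposure. GI50 marks 50% less growth.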 Active and inactive are the calls of the source. No stated cut-off is given here; in the data, active = GI50 up to about 1.1 µM and inactive = higher. Where a SMILES comes first, the peptide text is derived from it. [ ]: non-standard residue; d: D form. Phe(4-NO2) = N[CH](Cc1ccc([N+](=O)[O-])cc1)C(=O)O

Legend:
Test in all cases: NCI-60 cell line screen, 48 h
HOP-62 = system: HOP-62
SK-OV-3 = system: SK-OV-3
MOLT-4 = system: MOLT-4
CCRF-CEM = system: CCRF-CEM
A498 = system: A498
CAKI-1 = system: CAKI-1
DMS-273 = system: DMS-273
COLO 205 = system: COLO 205
HT-29 = system: HT-29
HCC 2998 = system: HCC 2998
NCI-H23 = system: NCI-H23
K562 = system: K562
NCI-H226 = system: NCI-H226
RPMI-8226 = system: RPMI-8226
HCT-116 = system: HCT-116
KM12 = system: KM12
DMS-114 = system: DMS-114
TK-10 = system: TK-10
SK-MEL-2 = system: SK-MEL-2
MDA-MB-435 = system: MDA-MB-435

Measured: GI50

CCN(CC)CCCCC1CCN(CC(=O)N2c3cc(Cl)ccc3NC(=O)CC2C)CC1 (stereo unspecified)
inactive: HOP-62 > 100 µM | SK-OV-3 > 100 µM | MOLT-4 > 100 µM | CCRF-CEM > 100 µM | A498 > 100 µM | CAKI-1 > 100 µM | DMS-273 > 100 µM | COLO 205 > 100 µM | HT-29 > 100 µM | HCC 2998 > 100 µM | NCI-H23 > 100 µM | K562 79.6 µM | NCI-H226 > 100 µM | RPMI-8226 > 100 µM | HCT-116 > 100 µM

C(=N\CC/N=C/c1cccc2ccccc12)/c1cccc2ccccc12
inactive: SK-OV-3 22.1 µM | KM12 > 100 µM | MOLT-4 > 100 µM | DMS-114 > 100 µM | CAKI-1 > 100 µM | TK-10 > 100 µM | DMS-273 > 100 µM | COLO 205 > 100 µM | HT-29 > 100 µM | HCC 2998 > 100 µM | NCI-H23 > 100 µM | K562 > 100 µM | NCI-H226 > 100 µM | RPMI-8226 > 100 µM | HCT-116 > 100 µM | SK-MEL-2 > 100 µM

O=C(Nc1cccc2c1[nH]c1c(-c3ccccc3)nccc12)c1ccccc1[N+](=O)[O-]
inactive: KM12 9.55 µM | MOLT-4 12.9 µM | CCRF-CEM 21.9 µM | A498 7.76 µM | CAKI-1 18.8 µM | TK-10 33 µM | DMS-273 4.88 µM | COLO 205 26.2 µM | HT-29 8.71 µM | HCC 2998 18.6 µM | NCI-H23 34.7 µM | K562 21.9 µM | NCI-H226 3.74 µM | RPMI-8226 30.7 µM | HCT-116 26.4 µM | SK-MEL-2 54.7 µM

O=c1cc[nH]c2ccc3nn[nH]c3c12
inactive: HOP-62 > 100 µM | SK-OV-3 > 100 µM | KM12 > 100 µM | MOLT-4 > 100 µM | CCRF-CEM > 100 µM | DMS-114 > 100 µM | A498 > 100 µM | CAKI-1 > 100 µM | TK-10 > 100 µM | DMS-273 > 100 µM | COLO 205 > 100 µM | HT-29 > 100 µM | HCC 2998 > 100 µM | NCI-H23 > 100 µM | K562 > 100 µM | RPMI-8226 > 100 µM | HCT-116 > 100 µM | SK-MEL-2 > 100 µM

CCN(C1=CC(=O)NC2CCCCN12)c1ccccc1 (stereo unspecified)
inactive: HOP-62 > 100 µM | SK-OV-3 > 100 µM | KM12 > 100 µM | MOLT-4 > 100 µM | CCRF-CEM > 100 µM | DMS-114 > 100 µM | A498 > 100 µM | CAKI-1 > 100 µM | TK-10 > 100 µM | DMS-273 > 100 µM | COLO 205 > 100 µM | HT-29 > 100 µM | HCC 2998 > 100 µM | NCI-H23 > 100 µM | K562 > 100 µM | RPMI-8226 > 100 µM | HCT-116 > 100 µM | SK-MEL-2 > 100 µM

CCOc1ccccc1NC(=O)C1=C(C)NC(C)=C(C(=O)Nc2ccccc2OCC)C1c1ccc([N+](=O)[O-])cc1
inactive: HOP-62 > 100 µM | SK-OV-3 > 100 µM | KM12 41 µM | DMS-114 65.9 µM | A498 78.9 µM | CAKI-1 > 100 µM | DMS-273 71.4 µM | COLO 205 67.9 µM | HT-29 75.5 µM | HCC 2998 > 100 µM | NCI-H23 44 µM | NCI-H226 21.4 µM | RPMI-8226 10 µM | HCT-116 > 100 µM | SK-MEL-2 44.3 µM

COc1c(OC(C)=O)ccc(/C=C2\N=C(C)OC2=O)c1[N+](=O)[O-]
inactive: HOP-62 > 100 µM | SK-OV-3 > 100 µM | KM12 > 100 µM | MOLT-4 > 100 µM | CCRF-CEM > 100 µM | A498 > 100 µM | CAKI-1 > 100 µM | TK-10 > 100 µM | DMS-273 > 100 µM | COLO 205 > 100 µM | HT-29 > 100 µM | HCC 2998 > 100 µM | K562 > 100 µM | RPMI-8226 > 100 µM | HCT-116 > 100 µM | SK-MEL-2 > 100 µM

Cc1ccc(NC(=O)C(=O)CC(=O)c2c(C)[n+]([O-])c3ccccc3[n+]2[O-])cc1C
inactive: HOP-62 > 100 µM | SK-OV-3 > 100 µM | KM12 > 100 µM | CCRF-CEM 63.1 µM | A498 > 100 µM | CAKI-1 > 100 µM | TK-10 > 100 µM | DMS-273 > 100 µM | COLO 205 43.7 µM | HT-29 > 100 µM | HCC 2998 > 100 µM | NCI-H23 > 100 µM | K562 > 100 µM | NCI-H226 > 100 µM | RPMI-8226 > 100 µM | HCT-116 > 100 µM | SK-MEL-2 > 100 µM

C=CCC1OC(C)(C)Oc2ccc(OCOCCOC)cc21 (stereo unspecified)
inactive: HOP-62 > 100 µM | SK-OV-3 > 100 µM | KM12 > 100 µM | MOLT-4 > 100 µM | DMS-114 > 100 µM | A498 > 100 µM | CAKI-1 > 100 µM | TK-10 > 100 µM | HT-29 > 100 µM | HCC 2998 > 100 µM | NCI-H23 > 100 µM | K562 > 100 µM | NCI-H226 > 10 µM | HCT-116 > 100 µM | SK-MEL-2 > 100 µM

ClC(Cl)[Si]12OCCN(CCO1)CCO2
inactive: SK-OV-3 > 100 µM | KM12 > 100 µM | MOLT-4 > 100 µM | CCRF-CEM > 100 µM | DMS-114 > 100 µM | A498 > 100 µM | CAKI-1 > 100 µM | TK-10 > 100 µM | DMS-273 > 100 µM | COLO 205 > 100 µM | HT-29 > 100 µM | HCC 2998 > 100 µM | NCI-H23 > 100 µM | K562 > 100 µM | RPMI-8226 > 100 µM | HCT-116 > 100 µM | SK-MEL-2 > 100 µM

O=C(c1ccco1)N(C(=S)N1CCN(c2ccccn2)CC1)c1ccccc1
inactive: HOP-62 > 100 µM | SK-OV-3 > 100 µM | KM12 > 100 µM | MOLT-4 > 100 µM | CCRF-CEM > 100 µM | DMS-114 66.1 µM | CAKI-1 > 100 µM | TK-10 > 100 µM | DMS-273 > 100 µM | COLO 205 > 100 µM | HT-29 > 100 µM | NCI-H23 > 100 µM | K562 > 100 µM | NCI-H226 18.7 µM | RPMI-8226 > 100 µM | HCT-116 > 100 µM | SK-MEL-2 > 100 µM

CCN(CC)CCNC(=O)c1ccc([N+](=O)[O-])cc1OC
inactive: HOP-62 > 100 µM | SK-OV-3 > 100 µM | KM12 > 100 µM | MOLT-4 > 100 µM | CCRF-CEM > 100 µM | DMS-114 > 100 µM | A498 > 100 µM | CAKI-1 > 100 µM | TK-10 > 100 µM | DMS-273 > 100 µM | COLO 205 > 100 µM | HT-29 > 100 µM | NCI-H23 > 100 µM | K562 > 100 µM | NCI-H226 > 100 µM | HCT-116 > 100 µM | SK-MEL-2 > 100 µM

O=C(O)/C(=C/c1c(O)ccc2ccccc12)c1csc(-c2nc(/C(=C\c3c(O)ccc4ccccc34)C(=O)O)cs2)n1
inactive: HOP-62 10 µM | SK-OV-3 12.3 µM | KM12 19.8 µM | MOLT-4 13.4 µM | CCRF-CEM 10.7 µM | DMS-114 10 µM | A498 20.7 µM | TK-10 29 µM | COLO 205 16.4 µM | HT-29 22.2 µM | HCC 2998 17.4 µM | NCI-H23 9.55 µM | K562 15.8 µM | NCI-H226 2.49 µM | RPMI-8226 9.38 µM | HCT-116 10.6 µM | SK-MEL-2 2.33 µM

CC(NC(=O)C(Cc1ccc([N+](=O)[O-])cc1)NC(=O)C(N)CCCCN)C(=O)NC(Cc1ccc([N+](=O)[O-])cc1)C(N)=O (stereo unspecified) (H-K[Phe(4-NO2)]A[Phe(4-NO2)]-NH2; configuration not given here)
inactive: HOP-62 11.7 µM | SK-OV-3 > 100 µM | KM12 23.4 µM | MOLT-4 > 31.6 µM | CCRF-CEM > 100 µM | A498 85.5 µM | CAKI-1 47 µM | TK-10 > 59.4 µM | COLO 205 > 52.7 µM | HT-29 20.4 µM | MDA-MB-435 > 52.6 µM | HCC 2998 28.1 µM | NCI-H23 85.3 µM | K562 > 20.5 µM | NCI-H226 98.9 µM | RPMI-8226 29.2 µM | HCT-116 > 45.2 µM | SK-MEL-2 51.5 µM

Cc1ccccc1NC(=O)C1C(=O)N(c2ccccc2C)C(=O)/C1=N\NC(N)=O (stereo unspecified)
inactive: HOP-62 > 100 µM | KM12 > 100 µM | MOLT-4 > 100 µM | CCRF-CEM > 100 µM | DMS-114 > 100 µM | A498 > 100 µM | CAKI-1 > 100 µM | TK-10 > 100 µM | DMS-273 > 100 µM | COLO 205 > 100 µM | HT-29 > 100 µM | HCC 2998 > 100 µM | NCI-H23 > 100 µM | K562 > 100 µM | HCT-116 > 100 µM | SK-MEL-2 > 100 µM

COc1cc2c3c(c1OC)C1(C=CC(=O)C=C1)CC3NCC2 (stereo unspecified)
inactive: HOP-62 > 100 µM | SK-OV-3 > 100 µM | KM12 80 µM | MOLT-4 > 100 µM | CCRF-CEM 48.8 µM | A498 > 100 µM | CAKI-1 > 100 µM | TK-10 > 100 µM | COLO 205 > 100 µM | HT-29 > 100 µM | MDA-MB-435 > 100 µM | HCC 2998 > 100 µM | NCI-H23 > 100 µM | K562 > 100 µM | NCI-H226 > 100 µM | RPMI-8226 > 100 µM | HCT-116 > 100 µM | SK-MEL-2 > 100 µM
